Patent US10947389B2, “Composition, film, near infrared cut filter, laminate, pattern forming method, solid image pickup element, image display device, infrared sensor, and color filter” (FUJIFILM Corporation, priority 2016, dated 2021)

Legend:
[1] = Evaluation of solubility in water at 23° C.; type: physicochemical; details: stirred for 1 hour
Procedure: Each of the compounds was added to water at 23° C. under the atmospheric pressure, the components were stirred for 1 hour, and the solubility of the compound in water was obtained. The solubility of the compound was evaluated based on the following criteria.
A: the solubility in water at 23° C. was 0.1 mass % or lower
B: the solubility in water at 23° C. was higher than 0.1 mass % and 1 mass % or lower
C: the solubility in water at 23° C. was higher than 1 mass %

[2] = Evaluation of absorption maximum and absorbance ratio (500 nm/λmax) in solution; type: physicochemical; details: for λmax (nm) of Second Near Infrared Absorbing Compound: as listed in Table 58; for Absorbance Ratio (500 nm/λmax) / Absorption Maximum (nm): solvent chloroform
From the text: In this specification, “having an absorption maximum in a wavelength range of 650 to 1000 nm” denotes having a maximum absorbance in a wavelength range of 650 to 1000 nm in an absorption spectrum of the near infrared absorbing compound in a solution. Examples of a measurement solvent used for the measurement of the absorption spectra of the near infrared absorbing compound in the solution include chloroform, methanol, dimethyl sulfoxide, ethyl acetate, and tetrahydrofuran. In the case of a compound which is soluble in chloroform, chloroform is used as the measurement solvent. In the case of a compound which is not soluble in chloroform, methanol is used. In addition, In the case of a compound which is not soluble in chloroform and methanol, dimethyl sulfoxide is used.
Each of the compounds was dissolved in a measurement solvent shown in the following tables (concentration: 2.5×10^−6 mol/L) to measure an absorption spectrum (optical path length: 10 mm).
In addition, an absorbance ratio (500 nm/λmax) as a value obtained by dividing an absorbance at a wavelength of 500 nm by an absorbance at an absorption maximum was evaluated based on the following criteria.
A: the absorbance ratio (500 nm/λmax) was 0.04 or lower
B: the absorbance ratio (500 nm/λmax) was higher 0.04 and 0.08 or lower
C: the absorbance ratio (500 nm/λmax) was higher than 0.08

| Structure (SMILES) | λmax (nm) of Second Near Infrared Absorbing Compound [2] | Absorption Maximum (nm) [2] | Second Near Infrared Absorbing Compound λmax (nm) ([2]; absorption maximum of the second near infrared absorbing compound) | Solubility [1] | Absorbance Ratio (500 nm/λmax) [2] |
| --- | --- | --- | --- | --- | --- |
| Cc1ccc2oc(/C(C#N)=c3/c4c(-c5cccc(OCC(CCC(C)CC(C)(C)C)C(C)CC(C)(C)C)c5)n(B5Oc6cc7ccccc7cc6O5)/c(=C(/C#N)c5nc6cc(C)ccc6o5)c4c(-c4cccc(OCC(CCC(C)CC(C)(C)C)C(C)CC(C)(C)C)c4)n3B3Oc4cc5ccccc5cc4O3)nc2c1 (centres unmarked) [II-275] | 685 nm | 685 nm | – | A (the solubility in water at 23 °C was 0.1 mass % or lower) | A (the absorbance ratio (500 nm/λmax) was 0.04 or lower) |
| CCCCC(CC)CC(=O)NC1=CC(=[N+](c2ccc(C)cc2)c2ccc(C)cc2)C=C/C1=C1\C(=O)C(c2ccc(N(c3ccc(C)cc3)c3ccc(C)cc3)cc2NC(=O)CC(CC)CCCC)=C1[O-] (centres unmarked) [Compound Q-3] | – | 737 nm | – | A (the solubility in water at 23 °C was 0.1 mass % or lower) | A (the absorbance ratio (500 nm/λmax) was 0.04 or lower) |
| Cc1ccc2oc(C(C#N)=c3c4c(-c5ccc(OCC(CCCCCCCC(C)C)CCCCCC(C)C)cc5)n(B(c5ccccc5C)c5ccccc5C)c(=C(C#N)c5nc6cc(C)ccc6o5)c4c(-c4ccc(OCC(CCCCCCCC(C)C)CCCCCC(C)C)cc4)n3B(c3ccccc3C)c3ccccc3C)nc2c1 (centres unmarked) [II-201] | – | 737 nm | – | A (the solubility in water at 23 °C was 0.1 mass % or lower) | A (the absorbance ratio (500 nm/λmax) was 0.04 or lower) |
| CC(C)CCCCCCCC(CCCCCC(C)C)COc1cccc(-c2c3c(=C(C#N)c4nc5c(ccc6ccccc65)o4)n(B(c4ccccc4)c4ccccc4)c(-c4cccc(OCC(CCCCCCCC(C)C)CCCCCC(C)C)c4)c3c(=C(C#N)c3nc4c(ccc5ccccc54)o3)n2B(c2ccccc2)c2ccccc2)c1 (centres unmarked) [II-715] | – | 769 nm | – | A (the solubility in water at 23 °C was 0.1 mass % or lower) | A (the absorbance ratio (500 nm/λmax) was 0.04 or lower) |
| Cc1ccc2c(c1)OB(n1c(-c3cccc(OCC(CCC(C)CC(C)(C)C)C(C)CC(C)(C)C)c3)c3/c(=C(\C#N)c4nc5cc(C)ccc5o4)n(B4Oc5ccc(C)cc5O4)c(-c4cccc(OCC(CCC(C)CC(C)(C)C)C(C)CC(C)(C)C)c4)c3/c1=C(\C#N)c1nc3cc(C)ccc3o1)O2 (centres unmarked) [II-269] | 685 nm | 685 nm | – | A (the solubility in water at 23 °C was 0.1 mass % or lower) | A (the absorbance ratio (500 nm/λmax) was 0.04 or lower) |
| Cc1ccc2oc(C(C#N)=c3c4c(-c5cccc(OCC(CCCCCCCC(C)C)CCCCCC(C)C)c5)n(B(c5ccccc5)c5ccccc5)c(=C(C#N)c5nc6cc(C)ccc6o5)c4c(-c4cccc(OCC(CCCCCCCC(C)C)CCCCCC(C)C)c4)n3B(c3ccccc3)c3ccccc3)nc2c1 (centres unmarked) [II-185] | – | 748 nm | – | A (the solubility in water at 23 °C was 0.1 mass % or lower) | A (the absorbance ratio (500 nm/λmax) was 0.04 or lower) |
| Cc1ccc2oc(/C(C#N)=c3/c4c(-c5ccc(O)cc5)n(B(c5ccccc5)c5ccccc5)/c(=C(/C#N)c5nc6cc(C)ccc6o5)c4c(-c4ccc(O)cc4)n3B(c3ccccc3)c3ccccc3)nc2c1 [II-184] | – | 749 nm | – | A (the solubility in water at 23 °C was 0.1 mass % or lower) | A (the absorbance ratio (500 nm/λmax) was 0.04 or lower) |
| CC(CCC(COc1cccc(-c2[nH]/c(=C(/C#N)c3cnc4ccccc4n3)c3c(-c4cccc(OCC(CCC(C)CC(C)(C)C)C(C)CC(C)(C)C)c4)[nH]/c(=C(/C#N)c4cnc5ccccc5n4)c23)c1)C(C)CC(C)(C)C)CC(C)(C)C (centres unmarked) [PP-1] | – | 739 nm | – | A (the solubility in water at 23 °C was 0.1 mass % or lower) | B (the absorbance ratio (500 nm/λmax) was higher 0.04 and 0.08 or lower) |

The next lines start with results.

| λmax (nm) of Second Near Infrared Absorbing Compound [2] | Absorption Maximum (nm) [2] | Second Near Infrared Absorbing Compound λmax (nm) ([2]; absorption maximum of the second near infrared absorbing compound) | Structure (SMILES) | Solubility [1] | Absorbance Ratio (500 nm/λmax) [2] |
| --- | --- | --- | --- | --- | --- |
| 743 nm | 743 nm | – | CC(C)CCCCCCCC(CCCCCC(C)C)COc1cccc(-c2c3c(=C(C#N)c4nc5ccccc5o4)n(B(c4ccccc4)c4ccccc4)c(-c4cccc(OCC(CCCCCCCC(C)C)CCCCCC(C)C)c4)c3c(=C(C#N)c3nc4ccccc4o3)n2B(c2ccccc2)c2ccccc2)c1 (centres unmarked) [II-27] | A (the solubility in water at 23 °C was 0.1 mass % or lower) | A (the absorbance ratio (500 nm/λmax) was 0.04 or lower) |
| – | 740 nm | – | CC(CCC(COc1ccc(-c2c3c(=C(C#N)c4nc5ccccc5o4)n(B(c4ccccc4)c4ccccc4)c(-c4ccc(OCC(CCC(C)CC(C)(C)C)C(C)CC(C)(C)C)cc4)c3c(=C(C#N)c3nc4ccccc4o3)n2B(c2ccccc2)c2ccccc2)cc1)C(C)CC(C)(C)C)CC(C)(C)C (centres unmarked) [II-10] | A (the solubility in water at 23 °C was 0.1 mass % or lower) | A (the absorbance ratio (500 nm/λmax) was 0.04 or lower) |
| – | 885 nm | – | CC(CCC(COc1ccc(-c2c3/c(=C(\C#N)c4cnc5cc(Cl)c(Cl)cc5n4)n(B(c4ccccc4)c4ccccc4)c(-c4ccc(O)cc4)c3/c(=C(\C#N)c3cnc4cc(Cl)c(Cl)cc4n3)n2B(c2ccccc2)c2ccccc2)cc1)C(C)CC(C)(C)C)CC(C)(C)C (centres unmarked) [Compound V-42] | A (the solubility in water at 23 °C was 0.1 mass % or lower) | A (the absorbance ratio (500 nm/λmax) was 0.04 or lower) |
| – | 745 nm | – | Cc1ccc2oc(C(C#N)=c3c4c(-c5ccc(OCC(CCC(C)CC(C)(C)C)C(C)CC(C)(C)C)cc5)n(B(c5ccccc5)c5ccccc5)c(=C(C#N)c5nc6cc(C)ccc6o5)c4c(-c4ccc(OCC(CCC(C)CC(C)(C)C)C(C)CC(C)(C)C)cc4)n3B(c3ccccc3)c3ccccc3)nc2c1 (centres unmarked) [II-168] | A (the solubility in water at 23 °C was 0.1 mass % or lower) | A (the absorbance ratio (500 nm/λmax) was 0.04 or lower) |
| – | 872 nm | – | Cc1cc2ncc(/C(C#N)=c3/c4c(-c5cccc(OCC(CCC(C)CC(C)(C)C)C(C)CC(C)(C)C)c5)n(B(c5ccccc5)c5ccccc5)/c(=C(/C#N)c5cnc6cc(C)c(C)cc6n5)c4c(-c4cccc(OCC(CCC(C)CC(C)(C)C)C(C)CC(C)(C)C)c4)n3B(c3ccccc3)c3ccccc3)nc2cc1C (centres unmarked) [III-328] | A (the solubility in water at 23 °C was 0.1 mass % or lower) | A (the absorbance ratio (500 nm/λmax) was 0.04 or lower) |
| – | 885 nm | – | CC(CCC(COc1ccc(-c2c3/c(=C(\C#N)c4cnc5cc(Cl)c(Cl)cc5n4)n(B(c4ccccc4)c4ccccc4)c(-c4ccc(OCC(CCC(C)CC(C)(C)C)C(C)CC(C)(C)C)cc4)c3/c(=C(\C#N)c3cnc4cc(Cl)c(Cl)cc4n3)n2B(c2ccccc2)c2ccccc2)cc1)C(C)CC(C)(C)C)CC(C)(C)C (centres unmarked) [III-168] | A (the solubility in water at 23 °C was 0.1 mass % or lower) | A (the absorbance ratio (500 nm/λmax) was 0.04 or lower) |
| – | 780 nm | – | CC(CCC(COc1ccc(-c2c3c(=C(C#N)c4nc5ccccc5s4)n(B(c4ccccc4)c4ccccc4)c(-c4ccc(OCC(CCC(C)CC(C)(C)C)C(C)CC(C)(C)C)cc4)c3c(=C(C#N)c3nc4ccccc4s3)n2B(c2ccccc2)c2ccccc2)cc1)C(C)CC(C)(C)C)CC(C)(C)C (centres unmarked) [II-508] | A (the solubility in water at 23 °C was 0.1 mass % or lower) | A (the absorbance ratio (500 nm/λmax) was 0.04 or lower) |
| – | 780 nm | – | CC(C)CCCCCCCC(CCCCCC(C)C)COc1ccc(-c2c3c(=C(C#N)c4nc5ccccc5s4)n(B(c4ccccc4)c4ccccc4)c(-c4ccc(OCC(CCCCCCCC(C)C)CCCCCC(C)C)cc4)c3c(=C(C#N)c3nc4ccccc4s3)n2B(c2ccccc2)c2ccccc2)cc1 (centres unmarked) [II-507] | A (the solubility in water at 23 °C was 0.1 mass % or lower) | A (the absorbance ratio (500 nm/λmax) was 0.04 or lower) |
| – | 732 nm | – | Cc1ccccc1B(c1ccccc1C)n1c(-c2ccc(OCC(CCC(C)CC(C)(C)C)C(C)CC(C)(C)C)cc2)c2/c(=C(\C#N)c3nc4ccccc4o3)n(B(c3ccccc3C)c3ccccc3C)c(-c3ccc(OCC(CCC(C)CC(C)(C)C)C(C)CC(C)(C)C)cc3)c2/c1=C(\C#N)c1nc2ccccc2o1 (centres unmarked) [II-44] | A (the solubility in water at 23 °C was 0.1 mass % or lower) | A (the absorbance ratio (500 nm/λmax) was 0.04 or lower) |
| 701 nm | 701 nm | 702 nm | Cc1ccc2oc(/C(C#N)=c3/c4c(-c5cccc(OCC(CCC(C)CC(C)(C)C)C(C)CC(C)(C)C)c5)n(B5Oc6ccccc6O5)/c(=C(/C#N)c5nc6ccccc6s5)c4c(-c4cccc(OCC(CCC(C)CC(C)(C)C)C(C)CC(C)(C)C)c4)n3B3Oc4ccccc4O3)nc2c1 (centres unmarked) [IV-92] | A (the solubility in water at 23 °C was 0.1 mass % or lower) | A (the absorbance ratio (500 nm/λmax) was 0.04 or lower) |
